The record followed here is PMC9370166, “In Vitro and In Vivo Antibacterial Activity, Toxicity and Resistance Analysis of Pleuromutilin Derivative Z33 against Methicillin-Resistant Staphylococcus aureus” (Molecules, 2022).

Data set [1] has as its system S. aureus clinical strain 144. Description: MIC and MBC determination (broth microdilution). The class given is cell-based. The note with it: Staphylococcus aureus; for MIC: first value of cell; for MBC: second value of cell. As for the experimental part:
(§1) The MIC values of Z33 against MRSA ATCC 43300 and S. aureus clinical isolates were measured according to the broth microdilution guidelines provided by the Clinical and Laboratory Standards Institute (CLSI). S. aureus ATCC 29213 was used as the quality control strain, and the quality control range was referred to the CLSI. The MIC value is defined as the lowest concentration of the compounds with no visible growth of bacteria. The MIC assay was independently repeated three times.
(§2) The MBC values of antibacterial agents were measured after incubation at 37 °C for 24 h. Briefly, 100 µL of bacterial solution from the three wells behind the corresponding well of MIC was absorbed and spread on the Mueller–Hinton Agar (MHA). The MBC refers to the lowest concentration corresponding to the amount of colony-forming unit (CFU) ≤ 5 on the medium after 18~24 h of incubation at 37 °C.

Data set [2] concerns S. aureus clinical strain AD3. In words: MIC and MBC determination (broth microdilution). It is filed as cell-based. The note with it: Staphylococcus aureus; for MIC: first value of cell; for MBC: second value of cell. As for the experimental part: as §1, §2
Data set [3] has as its system S. aureus ATCC 29213. Description: MIC and MBC determination (broth microdilution). The class given is cell-based. The note with it: Staphylococcus aureus; for MIC: ATCC29213, first value of cell; for MBC: ATCC29213, second value of cell. As for the experimental part:
as §1, §2
A general note: Broth dilution looks for growth in wells or tubes with falling amounts of substance.

Data set [4] relates to MRSA ATCC 43300. Description: MIC and MBC determination (broth microdilution). The note with it: Staphylococcus aureus; for MIC: first value of MIC/MBC cell; for MBC: second value of MIC/MBC cell. The class given is cell-based. The method, then: as §1, §2
Another data set relates to RAW264.7 cells. In words: Cytotoxicity test (MTT assay). The class given is cell-based. The note with it: concentrations less than 5 μg/mL, 24 h, MTT. The method, then:
(§3) To assess the effects of tiamulin and Z33 on the viability of RAW264.7 macrophages, the MTT assay was performed according to previous reports. […] After discarding the MTT solution, DMSO (150 μL) was added to each well to dissolve all crystals. OD490nm was recorded using EnSight Multimode Plate Reader (PerkinElmer, […], USA).
For orientation: Formazan colour is commonly taken as a measure of viable cells.

The nature of data set [5]: Cytotoxicity test (MTT assay). It is filed as cell-based. The note with it: mouse, RAW264.7 macrophages, RAW264.7, MTT, tested up to 20 μg/mL. As for the experimental part: as §3
A further data set deals with T1, CYP3A4 (Homo sapiens, UniProt P08684).
T1 construct: 40 µL of the human liver microsomal enzyme (final concentration is 0.5 g/L); tissue Research Institute for Liver Diseases Co., Ltd. (Shanghai, China); host or cells: human liver microsomes
T1 sequence (P08684 whole entry): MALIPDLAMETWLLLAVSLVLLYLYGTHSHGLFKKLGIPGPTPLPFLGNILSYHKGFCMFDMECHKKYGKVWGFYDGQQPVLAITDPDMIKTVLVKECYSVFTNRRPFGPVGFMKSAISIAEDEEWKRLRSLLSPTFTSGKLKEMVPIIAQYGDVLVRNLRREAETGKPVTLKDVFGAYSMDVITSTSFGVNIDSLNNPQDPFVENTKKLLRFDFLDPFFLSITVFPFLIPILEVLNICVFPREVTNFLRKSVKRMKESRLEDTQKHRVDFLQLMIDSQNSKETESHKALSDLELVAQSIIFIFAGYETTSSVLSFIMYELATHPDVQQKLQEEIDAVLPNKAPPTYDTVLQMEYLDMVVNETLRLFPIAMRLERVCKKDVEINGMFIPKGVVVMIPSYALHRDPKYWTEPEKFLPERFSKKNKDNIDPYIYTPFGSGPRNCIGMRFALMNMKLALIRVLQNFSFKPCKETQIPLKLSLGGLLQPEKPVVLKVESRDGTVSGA
In words: CYP450 inhibition assay, human liver microsomes, testosterone probe. It is filed as in vitro ADME. The method, then:
(§4) The inhibition effect of Z33 and tiamulin on the human liver microsomal enzyme was determined as described in the literature with some modifications. Experiments were performed in 96-well plates with a final incubation volume of 100 μL per well. 40 µL of the human liver microsomal enzyme (final concentration is 0.5 g/L), 20 µL of probe substrate (final concentration of testosterone and chlorzoxazone is 20 µmol/L), and 20 µL of test drug were mixed in each well. After preincubation at 37 °C for 5 min, the reactions were started by the addition of 20 μL of NADPH (final concentration is 1 mmol/L). Depending on the substrate, the chlorzoxazone and testosterone groups were incubated at 37 °C for 25 min and 10 min, respectively. The reaction was terminated by adding 100 µL of acetonitrile, and then the supernatant was centrifuged to analyse by LC-MS/MS.
On the technique in general: Microsomes from liver hold many membrane-bound enzymes, among them those of drug oxidation.

Data set [6] relates to MRSA ATCC 43300. Description: Neutropenic mouse thigh infection model. The class given is in vivo, mice. The note with it: 20 mg/kg intravenous. The method, then:
The neutropenic mouse thigh infection model was used to determine the in vivo antibacterial activity of Z33 [23]. Briefly, female mice were rendered neutropenic (neutrophil count ≤ 100/mm^3) via intraperitoneal injection of cyclophosphamide on day 4 (150 mg/kg) and day 1 (100 mg/kg) before infection. MRSA ATCC 43300 cells were collected in the logarithmic phase and resuspended in 0.9% saline. The thigh infection model was established by injection of 100 μL of MRSA suspension (10^7 CFU/mL) into the posterior thighs of mice. After 2 h post-infection, mice were intravenously injected with tiamulin and Z33 at a dose of 20 mg/kg, and the untreated groups were administrated with an equal amount of saline. Mice were euthanized after treatment of 22 h, thigh tissue was aseptically collected, weighed, homogenized, and serially diluted in saline, respectively. CFU counts were determined by the flat colony counting method.

Data set [7] has as its system S. aureus clinical strain 144. In words: Determination of MPC (mutant prevention concentration). It is filed as cell-based, Staphylococcus aureus. As for the experimental part: (§5) The drug-resistant tendency suppression potential of Z33 and tiamulin was determined as described with minor modifications. In the test, for each S. aureus strain, 4 mL of overnight cultures were inoculated into 100 mL of fresh BHI broth and then incubated for 4.5 h at 37 °C with shaking (210 rpm). Cultures were centrifuged at 5000 r/min for 10 min. The supernatant was discarded and resuspended in the 4 mL of saline to achieve a bacterial density of ~3 × 10^10 CFU/mL. In total, 100 μL of each culture was spread onto MHA containing various concentrations of Z33 and tiamulin. […] Plates were incubated at 37 °C for a total of 72 h and recorded every 24 h for the appearance of colonies. MPC was defined as the lowest concentration with no growth of colonies on the agar plate. MPC was carried out in triplicate.

Data set [8] relates to S. aureus clinical strain AD3. The data set is described as above. The class given is cell-based, Staphylococcus aureus. As for the experimental part: as §5
The subject of data set [9] is S. aureus ATCC 29213. Described as above. The class given is cell-based, Staphylococcus aureus. The method, then: as §5
Data set [10] concerns MRSA ATCC 43300. The description is as above. It is filed as cell-based, Staphylococcus aureus. As for the experimental part:
as §5

For another data set, the system named is four S. aureus strains. In words: microbe, parasite or virus in culture. The class given is cell-based, Staphylococcus aureus. As for the experimental part: To assess the propensity for the development of bacterial resistance, the ability of Z33 and tiamulin to induce resistance to four strains were tested, respectively. Serial passages at 37 °C were performed daily in BHI broth containing sub-MIC concentration (1/4 MIC) of Z33 and tiamulin. The MIC values were daily determined and recorded by the broth microdilution method. A duration of 13 passages was performed in every case.

Another data set addresses T2, CYP2E1 (Homo sapiens, UniProt P05181).
T2 construct: 40 µL of the human liver microsomal enzyme (final concentration is 0.5 g/L); tissue Research Institute for Liver Diseases Co., Ltd. (Shanghai, China); host or cells: human liver microsomes
In words: CYP450 inhibition assay, human liver microsomes, chlorzoxazone probe. The class given is in vitro ADME. The note with it: human liver microsomes. The method, then:
as §4

Values after ≈ are worked out from the molar mass of the structure shown. Read-outs that look alike come from different tables or passages of the source.

T2 sequence (P05181 whole entry): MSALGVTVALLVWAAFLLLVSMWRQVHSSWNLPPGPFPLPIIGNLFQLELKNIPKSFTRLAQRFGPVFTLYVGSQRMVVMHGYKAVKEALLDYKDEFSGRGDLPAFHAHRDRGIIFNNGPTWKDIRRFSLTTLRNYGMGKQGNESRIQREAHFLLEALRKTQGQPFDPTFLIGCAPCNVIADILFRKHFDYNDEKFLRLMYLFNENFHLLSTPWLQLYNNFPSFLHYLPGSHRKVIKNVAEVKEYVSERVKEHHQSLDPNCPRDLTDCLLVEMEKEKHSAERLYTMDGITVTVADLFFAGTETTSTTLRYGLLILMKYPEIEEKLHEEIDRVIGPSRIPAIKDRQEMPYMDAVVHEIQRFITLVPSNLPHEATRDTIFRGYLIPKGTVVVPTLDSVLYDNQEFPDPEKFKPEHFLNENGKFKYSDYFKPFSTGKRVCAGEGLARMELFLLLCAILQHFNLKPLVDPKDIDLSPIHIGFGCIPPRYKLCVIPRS

Usually MBC stands for the lowest tested concentration that kills the bacteria rather than only halting them. Low values mean greater bactericidal potency, high ones weaker bactericidal potency. In the case of `C=C[C@]1(C)C[C@@H](OC(=O)CSC(C)(C)CNC(=O)[C@H](N)C(C)C)[C@]2(C)[C@H](C)CC[C@]3(CCC(=O)[C@H]32)[C@@H](C)[C@@H]1O` [valnemulin], the MIC (in data set [1]; in data set [2]; in the data set with S. aureus ATCC 29213 [3]; in the data set with MRSA ATCC 43300 [4]) was 0.125 µg/mL (≈ 0.221 µM) throughout. Also, the MBC in data set [1] is 0.25 µg/mL (≈ 0.443 µM); in [2], 0.125 µg/mL (≈ 0.221 µM); with S. aureus ATCC 29213 [3] it was 0.125 µg/mL (≈ 0.221 µM); against MRSA ATCC 43300 [4], 0.125 µg/mL (≈ 0.221 µM).

Broadly, the IC50 is the concentration at which inhibition is half-maximal. On to `C=C[C@]1(C)C[C@@H](OC(=O)CSCCN(CC)CC)[C@]2(C)[C@H](C)CC[C@]3(CCC(=O)[C@H]32)[C@@H](C)[C@@H]1O` [tiamulin, reference compound], for which the “cytotoxicity on RAW264.7 cells” value with RAW264.7 cells is given as “No significant cytotoxicity”. The half-inhibitory concentration (IC50) at 24 h in data set [5] was not below 20 µg/mL. The concentration for half-maximal inhibition (IC50) at CYP3A4 is 1600 nM; on CYP2E1 (Figure 6, read-out: IC50 CYP2E1 (value in plot key)) it was 184 nM; on CYP2E1 (bound given in text, read-out: IC50 CYP2E1), less than 250 nM. The MIC was 0.5 µg/mL (≈ 1.01 µM) in data set [1]; 1 µg/mL (≈ 2.03 µM) in [2]; 0.5 µg/mL (≈ 1.01 µM) with S. aureus ATCC 29213 [3]; 0.5 µg/mL (≈ 1.01 µM) in the data set with MRSA ATCC 43300 [4]; 2 to 8 µg/mL (≈ 4.05 to 16.2 µM) in the data set on four S. aureus strains (Staphylococcus aureus, read-out: MICs of resistant clones). Further, the minimum bactericidal concentration (MBC) in data set [1] turned out to be 2 µg/mL (≈ 4.05 µM); in [2], 2 µg/mL (≈ 4.05 µM); against S. aureus ATCC 29213 [3], 1 µg/mL (≈ 2.03 µM); in the data set on MRSA ATCC 43300 [4], 1 µg/mL (≈ 2.03 µM). Besides, in the data set with MRSA ATCC 43300 [6] (after treatment for 24 h), the “MRSA inoculum in the thigh muscle” value was determined as 7.655 ± 0.067 log10 CFU/g. In the data set on MRSA ATCC 43300 [6] (versus untreated group), the “reduction of bacterial load in the thigh muscle” value worked out at 0.771 log10 CFU/g. For the same compound, the MPC in data set [7] amounted to 1 µg/mL; in data set [8], 2 µg/mL; in the data set with S. aureus ATCC 29213 [9], 1 µg/mL; with MRSA ATCC 43300 [10] it was 1 µg/mL. In addition, the “fold increase in MICs” value in the data set on four S. aureus strains (after 13 passages) is listed as approximately 32 fold. Also, the “passages after which resistance developed (≥ 4-fold MIC increase)” value in the data set on four S. aureus strains (four S. aureus strains) was determined as 3 passages.
